PubChem BioAssay AID248 (DTP/NCI, 2004)
Values joined by “and” are separate entries in the source; they are usually repeats but may differ in a detail not shown here. Equal values may be shown once. Inconclusive results and toxic doses are left out. Cut-off read from the data, not from the text of the source: active = T/C of 150% or more; inactive = T/C below 125%.

Test system: L1210 leukemia ip in BDF1 mice, survival T/C
Assay: NCI In Vivo Anticancer Drug Screen. Data for tumor model L1210 Leukemia (intraperitoneal) in B6D2F1 (BDF1) mice
Conditions: endpoint: mean survival time, higher = longer survival
Procedure, shortened: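 Antitumor effect is assessed in tumor-bearing animals. Survival in the compound arm is compared with a vehicle-dosed control arm and expressed as their quotient.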

[1] = dose: 100.0 mg/kg/injection, schedule: Q01DX009 (ip), vehicle: Klucel (hydroxypropylcellulose) (HPC)
[2] = dose: 100.0 mg/kg/injection, schedule: Q04DX003 (ip), vehicle: Klucel (hydroxypropylcellulose) (HPC)
[3] = dose: 200.0 mg/kg/injection, schedule: Q01DX009 (ip), vehicle: Klucel (hydroxypropylcellulose) (HPC)
[4] = dose: 200.0 mg/kg/injection, schedule: Q04DX003 (ip), vehicle: Klucel (hydroxypropylcellulose) (HPC)
[5] = dose: 400.0 mg/kg/injection, schedule: Q01DX009 (ip), vehicle: Klucel (hydroxypropylcellulose) (HPC)
[6] = dose: 400.0 mg/kg/injection, schedule: Q04DX003 (ip), vehicle: Klucel (hydroxypropylcellulose) (HPC)
[7] = dose: 100.0 mg/kg/injection, schedule: Q01DX001 (ip), vehicle: carboxymethylcellulose (CMC)
[8] = dose: 200.0 mg/kg/injection, schedule: Q01DX001 (ip), vehicle: carboxymethylcellulose (CMC)
[9] = dose: 400.0 mg/kg/injection, schedule: Q01DX001 (ip), vehicle: carboxymethylcellulose (CMC)

Measured: T/C

CCOC(=O)C(C(=O)OCC)C1c2ccccc2NC(=O)c2ccccc21 (stereo not drawn)
inactive: [1] 100 % of control | [2] 90 % of control | [3] 100 % of control | [4] 90 % of control | [5] 91 % of control | [6] 88 % of control

CCC(=O)OC1(c2ccccc2)CCN(CCCC(=O)c2ccccc2)CC1
inactive: dose: 20.0 mg/kg/injection, schedule: Q04DX003 (ip), vehicle: Klucel (hydroxypropylcellulose) (HPC) 111 % of control | dose: 40.0 mg/kg/injection, schedule: Q04DX003 (ip), vehicle: Klucel (hydroxypropylcellulose) (HPC) 96 % of control

O=C(O)c1cccc2ccccc12
inactive: dose: 100.0 mg/kg/injection, schedule: Q01DX009 (ip), vehicle: saline with Tween-80 89 % of control | dose: 200.0 mg/kg/injection, schedule: Q01DX009 (ip), vehicle: saline with Tween-80 100 % of control

c1ccc2cc(N=Nc3ccc4ccccc4c3)ccc2c1
inactive: [1] 98 % of control | [2] 95 % of control | [3] 97 % of control | [4] 92 % of control | [5] 102 % of control | [6] 94 % of control

O=[N+]([O-])c1ccc(/C=N\NC(=S)Nc2ccc3cn[nH]c3c2)cc1
inactive: dose: 50.0 mg/kg/injection, schedule: Q01DX001 (ip), vehicle: carboxymethylcellulose (CMC) 91 % of control | [7] 97 % of control | [8] 97 % of control | [9] 105 % of control

CCCCCCCCCCCCC1C(=O)NC(=S)NC1=O
inactive: dose: 75.0 mg/kg/injection, schedule: Q01DX001 (ip), vehicle: other 97 % of control and 100 % of control | dose: 150.0 mg/kg/injection, schedule: Q01DX001 (ip), vehicle: other 101 % of control and 113 % of control | dose: 300.0 mg/kg/injection, schedule: Q01DX001 (ip), vehicle: other 103 % of control

C[n+]1ccc(/C=C/c2c(Cl)cccc2Cl)c2ccccc21
inactive: dose: 3.13 mg/kg/injection, schedule: Q04DX003 (ip), vehicle: Klucel (hydroxypropylcellulose) (HPC) 94 % of control | dose: 6.25 mg/kg/injection, schedule: Q04DX003 (ip), vehicle: Klucel (hydroxypropylcellulose) (HPC) 98 % of control | dose: 12.5 mg/kg/injection, schedule: Q04DX003 (ip), vehicle: Klucel (hydroxypropylcellulose) (HPC) 93 % of control

Clc1ccc(CNc2ccc(Cl)c(Cl)c2)cc1
inactive: dose: 200.0 mg/kg/injection, schedule: Q04DX002 (ip), vehicle: saline with Tween-80 92 % of control | dose: 400.0 mg/kg/injection, schedule: Q04DX002 (ip), vehicle: saline with Tween-80 89 % of control

[Cl][Sn]([Cl])([Cl])[Cl]
inactive: dose: 100.0 mg/kg/injection, schedule: Q04DX003 (ip), vehicle: saline 95 % of control

CC1(N(O)C(=O)NCCCl)CCCCC1
inactive: dose: 100.0 mg/kg/injection, schedule: Q01DX001 (ip), vehicle: saline with Tween-80 109 % of control | dose: 200.0 mg/kg/injection, schedule: Q01DX001 (ip), vehicle: saline with Tween-80 102 % of control | dose: 400.0 mg/kg/injection, schedule: Q01DX001 (ip), vehicle: saline with Tween-80 93 % of control

Cc1cc(=O)[nH]c2c(OCOc3cccc4c(C)cc(=O)[nH]c34)cccc12
inactive: [2] 97 % of control | [4] 100 % of control | [6] 94 % of control

COc1cc2c(c3c1c(=O)c1ccccc1n3C)C=CC(C)(C)O2
inactive: dose: 6.0 mg/kg/injection, schedule: Q01DX001 (ip), vehicle: acetone 101 % of control | dose: 7.5 mg/kg/injection, schedule: Q01DX Z (ip), vehicle: other 106 % of control | dose: 12.0 mg/kg/injection, schedule: Q01DX001 (ip), vehicle: acetone 97 % of control | dose: 15.0 mg/kg/injection, schedule: Q01DX001 (ip), vehicle: other 97 % of control | dose: 15.0 mg/kg/injection, schedule: Q01DX Z (ip), vehicle: other 114 % of control | dose: 25.0 mg/kg/injection, schedule: Q01DX001 (ip), vehicle: acetone 105 % of control | dose: 30.0 mg/kg/injection, schedule: Q01DX001 (ip), vehicle: other 94 % of control | dose: 30.0 mg/kg/injection, schedule: Q01DX Z (ip), vehicle: other 122 % of control | dose: 50.0 mg/kg/injection, schedule: Q01DX001 (ip), vehicle: acetone 118 % of control | dose: 50.0 mg/kg/injection, schedule: Q01DX009 (ip), vehicle: acetone 103 % of control | dose: 60.0 mg/kg/injection, schedule: Q01DX001 (ip), vehicle: other 105 % of control | dose: 60.0 mg/kg/injection, schedule: Q01DX Z (ip), vehicle: other 103 % of control | dose: 100.0 mg/kg/injection, schedule: Q01DX001 (ip), vehicle: acetone 114 % of control | dose: 100.0 mg/kg/injection, schedule: Q01DX009 (ip), vehicle: acetone 91 % of control | dose: 120.0 mg/kg/injection, schedule: Q01DX001 (ip), vehicle: other 105 % of control | dose: 400.0 mg/kg/injection, schedule: Q01DX001 (ip), vehicle: acetone 116 % of control

O=C(NCCCCCCCCCCNC(=O)Nc1cccc(C2=NCCN2)c1)Nc1cccc(C2=NCCN2)c1
inactive: dose: 10.0 mg/kg/injection, schedule: Q01DX Z (ip), vehicle: water 106 % of control | dose: 20.0 mg/kg/injection, schedule: Q01DX Z (ip), vehicle: water 90 % of control

O=C(CCNNC(=O)c1ccncc1)NCc1ccccc1
inactive: dose: 25.0 mg/kg/injection, schedule: Q01DX009 (ip), vehicle: Klucel (hydroxypropylcellulose) (HPC) 101 % of control | dose: 25.0 mg/kg/injection, schedule: Q04DX003 (ip), vehicle: Klucel (hydroxypropylcellulose) (HPC) 101 % of control | dose: 50.0 mg/kg/injection, schedule: Q01DX009 (ip), vehicle: Klucel (hydroxypropylcellulose) (HPC) 110 % of control | dose: 50.0 mg/kg/injection, schedule: Q04DX003 (ip), vehicle: Klucel (hydroxypropylcellulose) (HPC) 114 % of control | [1] 97 % of control | [2] 95 % of control | [3] 101 % of control | [4] 86 % of control | [5] 101 % of control | [6] 95 % of control

CC1Cc2c(n[nH]c2CC2CC(=O)NC(=O)C2)C(C)C1 (stereo not drawn)
inactive: [7] 100 % of control | [8] 97 % of control | [9] 101 % of control

O=S(=O)(Nc1cc2c(nc3ccccn32)c2ccccc12)c1ccccc1
inactive: dose: 50.0 mg/kg/injection, schedule: Q01DX001 (ip), vehicle: saline 103 % of control

CC(=O)Nc1ccc(Cl)cc1
inactive: dose: 50.0 mg/kg/injection, schedule: Q01DX001 (ip), vehicle: other 101 % of control | dose: 100.0 mg/kg/injection, schedule: Q01DX001 (ip), vehicle: other 98 % of control | dose: 200.0 mg/kg/injection, schedule: Q01DX001 (ip), vehicle: other 101 % of control | dose: 400.0 mg/kg/injection, schedule: Q01DX001 (ip), vehicle: other 106 % of control

CCOC(=O)C1=NN(c2ccccc2)C(=O)C1N=Nc1ccc(S(=O)(=O)Nc2cc(C)nc(C)n2)cc1 (stereo not drawn)
inactive: dose: 100.0 mg/kg/injection, schedule: Q01DX001 (ip), vehicle: saline 101 % of control | dose: 200.0 mg/kg/injection, schedule: Q01DX001 (ip), vehicle: saline 102 % of control | dose: 400.0 mg/kg/injection, schedule: Q01DX001 (ip), vehicle: saline 96 % of control

C[C@@H]1CCC([C@@H](C)[C@H]2CC[C@H]3[C@@H]4CC[C@H]5C[C@@H](O)CC[C@]5(C)[C@H]4CC[C@]23C)=NC1
inactive: dose: 1.56 mg/kg/injection, schedule: Q01DX015 (ip), vehicle: saline 94 % of control | dose: 3.13 mg/kg/injection, schedule: Q01DX015 (ip), vehicle: saline 97 % of control | dose: 6.25 mg/kg/injection, schedule: Q01DX015 (ip), vehicle: saline 94 % of control | dose: 12.5 mg/kg/injection, schedule: Q01DX015 (ip), vehicle: saline 94 % of control | dose: 12.5 mg/kg/injection, schedule: Q01DX Z (ip), vehicle: saline 93 % of control | dose: 25.0 mg/kg/injection, schedule: Q01DX Z (ip), vehicle: saline 106 % of control | dose: 50.0 mg/kg/injection, schedule: Q01DX Z (ip), vehicle: saline 93 % of control | dose: 100.0 mg/kg/injection, schedule: Q01DX Z (ip), vehicle: saline 97 % of control | dose: 125.0 mg/kg/injection, schedule: Q01DX001 (ip), vehicle: saline 93 % of control
